The values below come from patent US8614201B2 (Janssen Pharmaceutica NV, priority 2009, dated 2013).

Each structure is given as a SMILES string.

By IC50 is commonly meant the concentration that inhibits the measured activity by half.

Chain of Human TRPA1 (O75762 whole entry): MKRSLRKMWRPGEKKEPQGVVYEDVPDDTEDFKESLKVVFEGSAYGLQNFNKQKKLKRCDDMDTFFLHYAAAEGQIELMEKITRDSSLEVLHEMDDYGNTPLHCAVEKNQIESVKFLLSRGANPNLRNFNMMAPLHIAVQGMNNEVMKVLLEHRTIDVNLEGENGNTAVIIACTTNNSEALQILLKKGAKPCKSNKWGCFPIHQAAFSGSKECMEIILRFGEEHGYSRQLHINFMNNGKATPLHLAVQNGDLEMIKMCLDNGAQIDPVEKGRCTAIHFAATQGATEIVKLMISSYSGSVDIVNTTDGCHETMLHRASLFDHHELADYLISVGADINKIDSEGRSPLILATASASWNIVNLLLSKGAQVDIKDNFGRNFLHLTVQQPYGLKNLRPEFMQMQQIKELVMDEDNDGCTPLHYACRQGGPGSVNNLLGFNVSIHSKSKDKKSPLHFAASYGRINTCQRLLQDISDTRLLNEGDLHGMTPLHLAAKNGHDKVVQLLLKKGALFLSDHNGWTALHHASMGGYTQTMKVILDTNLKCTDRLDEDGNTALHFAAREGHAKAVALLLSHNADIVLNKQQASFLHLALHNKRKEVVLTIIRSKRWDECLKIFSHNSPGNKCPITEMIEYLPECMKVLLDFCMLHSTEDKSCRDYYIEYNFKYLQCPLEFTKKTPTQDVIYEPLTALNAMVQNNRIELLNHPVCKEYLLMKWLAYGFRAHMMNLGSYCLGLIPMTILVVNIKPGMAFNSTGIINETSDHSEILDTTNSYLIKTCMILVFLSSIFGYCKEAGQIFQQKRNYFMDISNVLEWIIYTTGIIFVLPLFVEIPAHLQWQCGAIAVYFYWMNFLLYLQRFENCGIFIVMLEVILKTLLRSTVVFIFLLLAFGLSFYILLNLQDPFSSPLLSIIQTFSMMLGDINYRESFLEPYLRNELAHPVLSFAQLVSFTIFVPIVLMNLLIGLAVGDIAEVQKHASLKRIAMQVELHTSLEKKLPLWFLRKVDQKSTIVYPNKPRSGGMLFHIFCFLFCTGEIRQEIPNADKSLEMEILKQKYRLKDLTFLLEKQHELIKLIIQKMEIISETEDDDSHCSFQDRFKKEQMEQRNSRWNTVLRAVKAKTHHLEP

This experiment concerns the target Human TRPA1 (Homo sapiens, UniProt O75762). Briefly: Assay 1: In vitro cellular testing of TRPA1 modulation (CHO-TREx, Fluo-3 calcium fluorescence, AITC agonist). The format is cell-based. The note with it: CHO-TREx cells expressing human TRPA1; Fluo-3 fluorescence (FLIPR/Tetra); agonist 15 μM allyl isothiocyanate (AITC); 30 minute antagonist incubation. Set-up: expressed in transfected cells; host or cells: CHO-TREx cells (Invitrogen), vector pcDNA4/TO. Here is the method:
Assay 1: In Vitro Cellular Testing of TRPA1 Modulation
Human TRPA1 (NCBI accession number NM_007332.1) was cloned into pcDNA4/TO. CHO-TREx cells (Invitrogen, Carlsbad, Calif.) were stably transfected with pcDNA4/TO-TRPA1 using lipofection to generate a clonal cell line that expressed human TRPA1 in a tetracycline-inducible manner. Culture medium used was Ham's F-12 supplemented with 10% fetal bovine serum, 2 mM L-glutamine, 5 μg/ml blasticidin and 200 μg/ml zeocin. Cells were seeded in black-walled clear-bottom 96-well plates at a density of 50,000 cells per well and cultured overnight at 37° C. with 5% CO2 in culture medium supplemented with 1 μg/ml tetracycline. On the day of the experiment, cells were washed 3 times with HEPES buffered saline (in mM: NaCl 137, MgCl2 0.5, KCl 2, dextrose 5, CaCl2 2 and HEPES 10; pH 7.4). Cells were then loaded with calcium-sensitive fluorescent dye by incubation in the presence of 4 μM Fluo-3 AM (TefLabs, Austin, Tex.) at room temperature in the dark for 60 minutes. After incubation with dye, cells were washed in assay buffer and, if appropriate, antagonists were added at this time. Following a further 30 minute incubation, cells were assayed using a Fluorometric Imaging Plate Reader (FLIPR™) or a Tetra (both manufactured by Molecular Devices, CA) to simultaneously monitor Fluo-3 fluorescence in all wells (λexcitation=488 nm, λemission=540 nm). Changes in fluorescence were monitored for 3 minutes after the addition of 15 μM allyl isothiocyanate (AITC) as an agonist. Concentration-dependence of receptor blocking was determined by exposing each well of cells in duplicate rows of a 96-well plate to a serial dilution of test compound. The concentration series usually started at 10 μM with a three-fold serial decrement in concentration. The magnitude of the response to agonist challenge was determined by measuring the fluorescence before and 3 minutes after the addition of the agonist. The degree of blocking was determined by comparing the response to that of negative (no added antagonist) and positive (10 μM ruthenium red) control wells. Data were analyzed using a non-linear regression program (Origin; OriginLab, MA) to fit the concentration-response data to a Hill function. Antagonist potencies were determined as the concentration required to produce 50% reduction in the response as compared to the negative and positive controls.
With `C[C@@H](Nc1nc(CNC(=O)[C@@H]2CCCN2S(=O)(=O)c2ccc(Cl)s2)cc(-c2ccc(C(F)(F)F)cc2)n1)c1ccccn1` [Example 37, 1-(5-Chloro-thiophene-2-sulfonyl)-pyrrolidine-2S-carboxylic acid [2-(1-pyridin-2-yl-ethylamino)-6-(4-trifluoromethyl-phenyl)-pyrimidin-4R-ylmethyl]-amide], the IC50 is 7 nM. With `CN(C(=O)OC(C)(C)C)C1CCN(c2nc(CNC(=O)[C@@H]3CCCN3S(=O)(=O)c3ccc(Cl)s3)cc(-c3ccc(C(F)(F)F)cc3)n2)C1` (stereo partly drawn) [Example 38, {1-[4-({[1-(5-Chloro-thiophene-2-sulfonyl)-pyrrolidine-2S-carbonyl]-amino}-methyl)-6-(4-trifluoromethyl-phenyl)-pyrimidin-2-yl]-pyrrolidin-3-yl}-methyl-carbamic acid tert-butyl ester] the figure was 6 nM; with `N[C@H]1CCN(c2nc(CNC(=O)[C@@H]3CCCN3S(=O)(=O)c3ccc(Cl)s3)cc(-c3ccc(C(F)(F)F)cc3)n2)C1` [Example 39, 1-(5-Chloro-thiophene-2-sulfonyl)-pyrrolidine-2S-carboxylic acid [2-(3S-amino-pyrrolidin-1-yl)-6-(4-trifluoromethyl-phenyl)-pyrimidin-4-ylmethyl]-amide], 1260 nM; with `N[C@@H]1CCN(c2nc(CNC(=O)[C@@H]3CCCN3S(=O)(=O)c3ccc(Cl)s3)cc(-c3ccc(C(F)(F)F)cc3)n2)C1` [Example 40, 1-(5-Chloro-thiophene-2-sulfonyl)-pyrrolidine-2S-carboxylic acid [2-(3R-amino-pyrrolidin-1-yl)-6-(4-trifluoromethyl-phenyl)-pyrimidin-4-ylmethyl]-amide], 1650 nM. Regarding `CNC1CCN(c2nc(CNC(=O)[C@@H]3CCCN3S(=O)(=O)c3ccc(Cl)s3)cc(-c3ccc(C(F)(F)F)cc3)n2)C1` (stereo partly drawn) [Example 41, 1-(5-Chloro-thiophene-2-sulfonyl)-pyrrolidine-2S-carboxylic acid [2-(3-methylamino-pyrrolidin-1-yl)-6-(4-trifluoromethyl-phenyl)-pyrimidin-4-ylmethyl]-amide], the IC50 is 2920 nM.

Take `CC(C)COc1nc(CNC(=O)[C@@H]2CCCN2S(=O)(=O)c2ccc(F)cc2)cc(-c2ccc(C(F)(F)F)cc2)n1` [Example 42, 1-(4-Fluoro-benzenesulfonyl)-pyrrolidine-2-carboxylic acid [2-isobutoxy-6-(4-trifluoromethyl-phenyl)-pyrimidin-4-ylmethyl]-amide]: the IC50 amounted to 16 nM. The same measure for `CC(C)COc1nc(CNC(=O)[C@@H]2CCCN2S(=O)(=O)c2ccc(Cl)s2)cc(-c2ccc(C(F)(F)F)cc2)n1` [Example 43, 1-(5-Chloro-thiophene-2-sulfonyl)-pyrrolidine-2S-carboxylic acid [2-isobutoxy-6-(4-trifluoromethyl-phenyl)-pyrimidin-4-ylmethyl]-amide]: 4 nM; for `CC(C)C1CCCN1c1nc(CNC(=O)[C@@H]2CCCN2S(=O)(=O)c2ccc(Cl)s2)cc(-c2ccc(C(F)(F)F)cc2)n1` (stereo partly drawn) [Example 44, 1-(5-Chloro-thiophene-2-sulfonyl)-pyrrolidine-2S-carboxylic acid [2-(2-isopropyl-pyrrolidin-1-yl)-6-(4-trifluoromethyl-phenyl)-pyrimidin-4-ylmethyl]-amide]: 12 nM. With `CC(O)CNc1nc(CNC(=O)[C@@H]2CCCN2S(=O)(=O)c2ccc(Cl)s2)cc(-c2ccc(C(F)(F)F)cc2)n1` (stereo partly drawn) [Example 45, 1-(5-Chloro-thiophene-2-sulfonyl)-pyrrolidine-2S-carboxylic acid [2-(2-hydroxy-propylamino)-6-(4-trifluoromethyl-phenyl)-pyrimidin-4-ylmethyl]-amide] the figure was 2040 nM. As to `CC(C)(O)CNc1nc(CNC(=O)[C@@H]2CCCN2S(=O)(=O)c2ccc(Cl)s2)cc(-c2ccc(C(F)(F)F)cc2)n1` [Example 46, 1-(5-Chloro-thiophene-2-sulfonyl)-pyrrolidine-2S-carboxylic acid [2-(2-hydroxy-2-methyl-propylamino)-6-(4-trifluoromethyl-phenyl)-pyrimidin-4-ylmethyl]-amide], the IC50 was 747 nM. The same measure for `COc1nc(CNC(=O)[C@@H]2CCCN2S(=O)(=O)c2ccc(Cl)s2)cc(-c2ccc(C(F)(F)F)cc2)n1` [Example 47, 1-(5-Chloro-thiophene-2-sulfonyl)-pyrrolidine-2S-carboxylic acid [2-methoxy-6-(4-trifluoromethyl-phenyl)-pyrimidin-4-ylmethyl]-amide]: 14 nM; for `CC1CCCN1c1nc(CNC(=O)[C@@H]2CCCN2S(=O)(=O)c2ccc(Cl)s2)cc(-c2ccc(C(F)(F)F)cc2)n1` (stereo partly drawn) [Example 48, 1-(5-Chloro-thiophene-2-sulfonyl)-pyrrolidine-2S-carboxylic acid [2-(2-methyl-pyrrolidin-1-yl)-6-(4-trifluoromethyl-phenyl)-pyrimidin-4-ylmethyl]-amide]: 6 nM.

As for `CCOc1nc(CNC(=O)[C@@H]2CCCN2S(=O)(=O)c2ccc(Cl)s2)cc(-c2ccc(C(F)(F)F)cc2)n1` [Example 49, 1-(5-Chloro-thiophene-2-sulfonyl)-pyrrolidine-2S-carboxylic acid [2-ethoxy-6-(4-trifluoromethyl-phenyl)-pyrimidin-4-ylmethyl]-amide], the IC50 was 15 nM. In the case of `O=C(NCc1cc(-c2ccc(C(F)(F)F)cc2)nc(N2CCN(Cc3ccccc3Cl)CC2)n1)[C@@H]1CCCN1S(=O)(=O)c1ccc(F)cc1` [Example 50, 1-(4-Fluoro-benzenesulfonyl)-pyrrolidine-2S-carboxylic acid [2-[4-(2-chloro-benzyl)-piperazin-1-yl]-6-(4-trifluoromethyl-phenyl)-pyrimidin-4-ylmethyl]-amide], the IC50 was 36 nM. For the compound `O=C(NCc1cc(-c2ccc(C(F)(F)F)cc2)nc(N2CCN(Cc3ccccc3OC(F)(F)F)CC2)n1)[C@@H]1CCCN1S(=O)(=O)c1ccc(F)cc1` [Example 51, 1-(4-Fluoro-benzenesulfonyl)-pyrrolidine-2S-carboxylic acid [2-[4-(2-trifluoromethoxy-benzyl)-piperazin-1-yl]-6-(4-trifluoromethyl-phenyl)-pyrimidin-4-ylmethyl]-amide], the concentration for half-maximal inhibition (IC50) turned out to be 148 nM. Consider `CCc1ccccc1CN1CCN(c2nc(CNC(=O)[C@@H]3CCCN3S(=O)(=O)c3ccc(F)cc3)cc(-c3ccc(C(F)(F)F)cc3)n2)CC1` [Example 52, 1-(4-Fluoro-benzenesulfonyl)-pyrrolidine-2S-carboxylic acid [2-[4-(2-ethyl-benzyl)-piperazin-1-yl]-6-(4-trifluoromethyl-phenyl)-pyrimidin-4-ylmethyl]-amide], for which the IC50 worked out at 13 nM. With `CC(=O)N(C)C1CCN(c2nc(CNC(=O)[C@@H]3CCCN3S(=O)(=O)c3ccc(Cl)s3)cc(-c3ccc(C(F)(F)F)cc3)n2)C1` (stereo partly drawn) [Example 53, 1-(5-Chloro-thiophene-2-sulfonyl)-pyrrolidine-2S-carboxylic acid [2-[3-(acetyl-methyl-amino)-pyrrolidin-1-yl]-6-(4-trifluoromethyl-phenyl)-pyrimidin-4-ylmethyl]-amide] the figure was 426 nM; with `CCN(CC)C1CCN(c2nc(CNC(=O)[C@@H]3CCCN3S(=O)(=O)c3ccc(Cl)s3)cc(-c3ccc(C(F)(F)F)cc3)n2)C1` (stereo partly drawn) [Example 54, 1-(5-Chloro-thiophene-2-sulfonyl)-pyrrolidine-2S-carboxylic acid [2-(3-diethylamino-pyrrolidin-1-yl)-6-(4-trifluoromethyl-phenyl)-pyrimidin-4-ylmethyl]-amide], 1070 nM; with `CC(C)N1CCC(CN(C)c2nc(CNC(=O)[C@@H]3CCCN3S(=O)(=O)c3ccc(Cl)s3)cc(-c3ccc(C(F)(F)F)cc3)n2)CC1` [Example 55, 1-(5-Chloro-thiophene-2S-sulfonyl)-pyrrolidine-2S-carboxylic acid [2-[(1-isopropyl-piperidin-4-ylmethyl)-methyl-amino]-6-(4-trifluoromethyl-phenyl)-pyrimidin-4-ylmethyl]-amide], 2550 nM. With `CC(C)CN1CCN(c2nc(CNC(=O)[C@@H]3C=CCN3S(=O)(=O)c3ccc(Cl)s3)cc(-c3ccc(C(F)(F)F)cc3)n2)CC1` [Example 56, 1-(5-Chloro-thiophene-2-sulfonyl)-2,5-dihydro-1H-pyrrole-2S-carboxylic acid [2-(4-isobutyl-piperazin-1-yl)-6-(4-trifluoromethyl-phenyl)-pyrimidin-4-ylmethyl]-amide] the figure was 51 nM.
